Measured values: article PMC10979003, “Development and crystal structures of a potent second-generation dual degrader of BCL-2 and BCL-xL” (Nature Communications, 2024)

Legend:
Jurkat cells = assay: Viability (MTS) assay in Jurkat cells; format: cell-based, human; conditions: 72 h
Method: For the viability assays in Jurkat cells, the cells in complete cell culture medium were seeded in 96-well plates (100 µl per well) at the optimized densities (50,000 cells). Compound treatments were prepared in complete cell culture medium and 100 µl of 2× treatment-containing medium were added to each well. Complete cell culture medium without treatment was added in control wells, and wells containing medium without cells served as background. The outer wells of the 96-well plate were not used for treatment and were filled with 250 µl of PBS to reduce evaporation of medium from inner wells. Each compound and/or combination was tested at nine different concentrations with three replicates. The cell viability was measured after 72 h by tetrazolium-based MTS assay. […] The cells were incubated for 4 h at 37 °C and 5% CO2, and then the absorbance was recorded at 490 nm using Biotek’s Synergy Neo2 multimode plate reader (Biotek). The average absorbance value of background wells was subtracted from absorbance value of each control and treatment well, and percent cell viability ((At/A0) × 100) was determined in each treatment well, where At is the absorbance value of the treatment well and A0 is the average absorbance value of control wells after background subtraction. […]

BCL-2 E114A [1] = target: T1, BCL-2 E114A (Homo sapiens, UniProt P10415, E114A); assay: AlphaScreen binary binding, BCL-2 E114A
T1 construct: BCL-xL (aa 2-212) and BCL-2 (aa 1-207) transformed cells were grown in LB broth; made in house; host or cells: E. coli BL21 (DE3) codon plus
Method: To test the binary/ternary binding affinities of compounds to BCL-2/BCL-xL, AlphaScreen displacement binding assay was performed to test the capabilities of testing compounds to displace a Biotin-tagged Bim (Biotin-[…]) or Bad (Biotin-[…]) from BCL-2 or BCL-xL for BCL-2 and BCL-xL binding affinities, respectively. All reagents were diluted in assay buffer of 25 mM HEPES, pH 7.5, 150 mM NaCl, 0.1% BSA, and 0.005% tween 20 prior incubation. To a 96-well PCR plate (VWR, Cat. No. 82006-636) was added 10 μL Biotin-tagged Bim (15 nM for WT or 50 nM for mutants) or Bad (15 nM for WT or 50 nM for mutants), 10 μL series diluted compounds solution (2 or 3 or 4× dilution), and 10 μL self-made 6×His tagged BCL-2 WT or mutants (25 nM WT or 50 nM mutants) or 10 μL self-made BCL-xL WT and mutants (10 nM WT or 50 nM mutants). […] The luminescence signal was detected on a Biotek’s Synergy Neo2 multimode plate reader installed with an AphaScreen filter cube. The Ki values of each compounds were calculated by fitting data into the “Binding-competitive, One site-Fit Ki” function in GraphPad Prism (9.2.0) based on concentrations of Biotin–peptide used and experimentally determined Kd values of each 6×His protein &&&and Biotin–Peptide pair.

BCL-2 E114A [2] = target: T2, BCL-2 E114A (Homo sapiens, UniProt P10415+P40337, E114A); assay: Polyubiquitin chain formation assay, BCL-2 E114A; format: biochemical; conditions: 10 μM WH244, 1 h, Fig. 5d
T2 construct: BCL-xL (aa 2-212) and BCL-2 (aa 1-207) transformed cells were grown in LB broth; VHL (aa 54-213) and ElonginBC were co-transformed (VCB); 6xHis (TEV-cleavable) (N, cleaved yes); made in house; host or cells: E. coli BL21 (DE3) codon plus (BCL-2, VCB); Trichoplusia ni High-Five insect cells (Cullin2-Rbx1)
Method: WT BCL-xL/BCL-2 (5 μM) were ubiquitinated in the presence of E1 SpUba1 (0.1 μM), E2, UbcH5c (1 μM) and Cdc34 (1 μM), ubiquitin (75 μM), VHL-Elongin C-Elongin B complex (0.35 μM), neddylated Cullin2-Rbx1 complex (0.35 μM) and 753b or WH244 (10 μM) at 37 °C in a buffer of 50 mM HEPES, pH 7.5, 10 mM MgCl2, 100 mM NaCl, 2 mM ATP, and 0.5 mM DTT. The reaction mixture was incubated for indicated time points (Supplementary Fig. 4a, b, d, e, g, h) and was terminated by the addition of 1× reducing SDS-PAGE loading buffer. The polyUb chain formation was assessed using immunoblotting as described earlier. For polyUb chain formation on mutant proteins used in this study, the above protocol was used with a fixed time-point of 1 h.

T1 sequence (P10415 1-207 E114A): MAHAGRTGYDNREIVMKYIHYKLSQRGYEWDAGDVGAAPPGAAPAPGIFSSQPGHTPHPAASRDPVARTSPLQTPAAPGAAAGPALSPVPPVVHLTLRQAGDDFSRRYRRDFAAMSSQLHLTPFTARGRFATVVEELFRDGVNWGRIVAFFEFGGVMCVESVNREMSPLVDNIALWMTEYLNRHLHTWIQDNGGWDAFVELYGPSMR

`Cc1ncsc1-c1ccc([C@H](C)NC(=O)[C@@H]2C[C@@H](O)CN2C(=O)[C@@H](NC(=O)CN2CCN(CC(=O)N3CCN(C[C@]4(C)CCC(c5ccc(Cl)cc5)=C(CN5CCN(c6ccc(C(=O)NS(=O)(=O)c7ccc(N[C@H](CCN8C[C@@H]9C[C@H]8CO9)CSc8ccccc8)c(S(=O)(=O)C(F)(F)F)c7)cc6)CC5)C4)CC3)CC2)C(C)(C)C)cc1` [WH244] was tested, and the “Potency in killing Jurkat cells (comparison)” value (Jurkat cells) was “outperformed 753b, DT2216, and ABT263”, the “Increase in Ki for the binary interaction, mutant E114A versus WT BCL-2” value (BCL-2 E114A [1]) was “more than two-fold” and the Ki (BCL-2 E114A [1]; mean ± s.d., n=3) was 7.4 ± 1.5 nM. For the same molecule, the “PolyUb chain formation retained by E114A, share of the WT activity” value (BCL-2 E114A [2]) was 10-12%.
